According to US20150315218A1, “SALTS OF PRODRUGS OF PIPERAZINE AND SUBSTITUTED PIPERIDINE ANTIVIRAL AGENTS” (Bristol-Myers Squibb Company, priority 2004, published 2015):
Where a name gives a salt, the structure may show the parent alone. Read-outs that look alike come from different tables or passages of the source.

Assays:
[1] = Multiple dose study of Compound IVa in healthy humans; format: in vivo, human; settings: multiple Q12H doses, 14 days
Experimental: A placebo-controlled, ascending multiple-dose study to evaluate the safety, tolerability and pharmacokinetics of Compound IVa in healthy human subjects was carried out. Dosing was continued at 12 h intervals for 14 days. […] Thus, the exposure was better when dosing was combined with a high fat meal and exposure increases with dose were higher with a high fat meal.

HIV-1 = assay: Multiple dose study in HIV patients (antiviral activity of IVa); format: in vivo, human
Experimental: Based on the exposure data from the studies in normal volunteers, an efficacy study was carried out in HIV patients. […] “Antiviral Activity, Safety, and Tolerability of a Novel, Oral Small-Molecule HIV-1 Attachment Inhibitor, IVa, in HIV-1-Infected Subjects” G. Hanna, J. Lalezari, J. Hellinger, D. Wohl, T. Masterson, W. Fiske, J. Kadow, P-F. Lin, M. Giordano, R. Colonno, D. Grasela. Abstract J-32, Feb. 11, 2004, 11th Conference on Retroviruses and Opportunistic Infections (CROI), San Francisco, Calif. The study design included HIV+ adults who were either antiretroviral therapy naïve or off antiretroviral therapy for ≧16 weeks. Their CD4 counts were required to be ≧250 cells/mm3 and plasma HIV-1 RNA needed to be in the range 5,000-500,000 c/mL. There were 15 subjects in each dose arm and the ratio of patients receiving drug:placebo was 4:1.
The placebo-controlled, sequential study of IVa utilized an initial dose arm of 800 mg PO every 12 h followed by a second dosing arm of 1800 mg PO administered every 12 h. It is important to note that drug was administered in a capsule and in combination with a high fat meal to increase exposure and plasma levels. Study drug was administered for 7 days and the morning of Day 8. Subjects were followed for 14 days.

[2] = MAP studies G and H: PO dosing of diester IIa and monoester II′a in rats; format: in vivo, rat; settings: 5 mg/kg; for AUC / Cmax / Tmax / bioavailability / half-life: male, Sprague-Dawley, rat, plasma, po; for half-life: read-out: T½ p.o. (converted)
Experimental: Compound IVa was administered in a polyethylene glycol 400 (PEG400)/ethanol (EtOH) solution (90/10, v/v) unless noted otherwise. Plasma and tissue samples were collected and stored at −20° C. until analysis. Male Sprague-Dawley rats (300-350 g, Hilltop Lab Animals, Inc., Scottdale, Pa. 15683) with cannulas implanted in the jugular vein and/or bile duct were used in the pharmacokinetic studies of compound IVa. Rats were fasted overnight in PO studies. Blood samples (0.3 mL) were collected from the jugular vein in EDTA-containing microtainer tubes (Becton Dickinson, Franklin Lakes, N.J. 07147) to obtain plasma. […] In the PO studies, rats (n=3) received PO doses of 5 and 100 mg/kg.
The procedure for the oral dosing leg of MAP study A1 was followed except that diester IIa was utilized in place of Compound IVa. […] The data is described in Table 10 below:
The procedure for the oral dosing leg of MAP study A1 was followed except that monoester II′a was utilized in place of Compound IVa. […]

[3] = Oral dose escalation study in rats (Study D of Ica; historical Study E of IVc); format: in vivo; settings: Sprague-Dawley, rat, plasma; for concentration at 24 h: read-out: C-24 hr; for AUC: read-out: Mean AUCtot
Experimental: Pharmacokinetic analysis was performed on Kinetica™.
The brain samples were blotted dry and the wet weights were recorded.

[4] = 2-week oral dose rat toxicology / TK study F; format: in vivo; settings: rat, plasma, historical; for AUC(0-t): read-out: Mean AUC0-24 hr
Experimental: In the 2-week oral rat study F (n=six/sex/group), Compound IVe was administered at daily doses of 15, 75, or 200 mg/kg. […] On Day 14, AUC0-24 h values were slightly higher in females (≦644 μg*hr/ml) compared to males (526.88 μg*hr/ml) at dosages 200 mg/kg/day. The oral (PO) results from Study F are in Table 5.

[5] = 2-week rat toxicity study (5, 50 or 500 mg/kg BID); format: in vivo; settings: 2 weeks, in-life phase completed
Experimental: A 2-week rat toxicity study using dosages of 5, 50, or 500 mg/kg BID to support the IND is ongoing (3).

[6] = Capsule formulation studies of IVa (clinical form, spray dried form) vs Iab in fasted dogs; format: in vivo, dog; settings: capsules, 20 mg/kg of IVa equivalent
Experimental: Additional formulation studies of IVa were conducted in fasted dogs (n=2 per dose group). The dogs were administered either the clinical form or the spray dried form of IVa in capsules. The clinical capsule form of IVa was administered at a single dose of 20 mg/kg. The spray dried form of IVa was administered at 20, 75 and 200 mg/kg.

Caco-2 cells = assay: Hydrolysis of prodrug in Caco-2 cells; format: in vitro ADME
pKa = format: physicochemical; settings: read-out: pKa (potentiometric)
[7] = rat, 10 μM
[8] = 800 mg PO every 12 h with high fat meal
[9] = IVa following PO dosing of diester IIa
[10] = IVa following PO dosing of monoester II′a

## COc1ncc(OC)c2c(C(=O)C(=O)N3CCN(C(=O)c4ccccc4)CC3)c[nH]c12 [IVa, N-(benzoyl)-N′-[(4,7-dimethoxy-6-azaindol-3-yl)-oxoacetyl]piperazine]
[1]
  accumulation: ≤ 1.5 fold
HIV-1; [8]
  Day 8 Change in CD4, Mean (SD): 106 (151) cells/mm3
  Day 8 Change in CD4, Range: −214 to +272 cells/mm3
  Maximal Change in HIV RNA Over 14 days >0.5 log10 c/mL, n (%): 8 (67%) n (%)
  Maximal Change in HIV RNA Over 14 days >1.0 log10 c/mL, n (%): 7 (58%) n (%)
  Maximal Change in HIV RNA Over 14 days >1.5 log10 c/mL, n (%): 3 (25%) n (%)
  Maximal change in HIV RNA Over 14 days, Mean (SD): −1.00 (0.50) log10 c/mL
  Maximal change in HIV RNA Over 14 days, Range: −0.32 to −1.60 log10 c/mL
HIV-1; 800 mg PO every 12 h with high fat meal, HIV+ adults
  Day 8 Change in HIV RNA, Mean (SD): −0.72 (0.51) log10 c/mL
HIV-1; 800 mg dosing level with high fat meal
  patients with >1.0 log drop in viral load: 58%
HIV-1; 1800 mg every 12 h with high fat meal
  mean response (drop in viral load): −0.96 log 10
[2]; [9]
  Cp @ 24 hr p.o. (nM): Not detected
  AUC: 4 ± 1 µM·h
  Cmax: 1.12 ± 0.27 µM
  Tmax: 2.7 ± 1.2 h
  bioavailability: 33%
  half-life: 1.3 ± 0.26 h
[2]; IVa following PO dosing of monoester II′a, n = 2/3
  Cp @ 24 hr p.o. (nM): 3.61 (n = 2/3) nM
[2]; [10]
  AUC: 5.9 ± 2.2 µM·h
  Cmax: 1.59 ± 0.615 µM
  Tmax: 2 ± 1.7 h
  bioavailability: 44%
  half-life: 2.8 ± 1.6 h

## COc1cnc(-n2cnc(C)n2)c2[nH]cc(C(=O)C(=O)N3CCN(C(=O)c4ccccc4)CC3)c12 [IVc]
[3]; oral, 25 mg/kg
  concentration at 24 h: 0.61 µM
[3]; oral, 75 mg/kg
  concentration at 24 h: 5.2 µM
[3]; oral, 200 mg/kg
  concentration at 24 h: 10 µM
[3]; po, 25 mg/kg
  Cmax: 46 µM
  Tmax: 4 h
  AUC: 458 µM·h
[3]; po, 75 mg/kg
  Cmax: 86 µM
  Tmax: 5 h
  AUC: 1070 µM·h
[3]; po, 200 mg/kg
  Cmax: 42 µM
  Tmax: 4 h
  AUC: 518 µM·h
[3]; male, po, 5 mg/kg
  Cmax: 29 ± 14 µM
  Tmax: 0.5 ± 0.25 h
  concentration at 24 h: 0.029 ± 0.008 µM
  AUC: 109 ± 15 µM·h
[3]; male, po, 25 mg/kg
  Cmax: 98 ± 21 µM
  Tmax: 1.7 ± 2 h
  concentration at 24 h: 0.35 ± 0.13 µM
  AUC: 586 ± 53 µM·h
[3]; male, po, 200 mg/kg
  Cmax: 281 ± 55 µM
  Tmax: 1.1 ± 0.8 h
  concentration at 24 h: 58 ± 36 µM
  AUC: 2920 ± 304 µM·h
[4]; rats PO 15 mg/kg (soln), 80/10/10 PEG-400/Ethanol/0.1N NaOH
  Cmax: 42 µM
[4]; rats PO 15 mg/kg (soln)
  AUC(0-t): 418 µM·h
[4]; rats PO 75 mg/kg (susp)
  Cmax: 65 µM
  AUC(0-t): 792 µM·h
[4]; rats PO 200 mg/kg (susp)
  Cmax: 76 µM
  AUC(0-t): 1080 µM·h

## COc1cnc(OC)c2c1c(C(=O)C(=O)N1CCN(C(=O)c3ccccc3)CC1)cn2COP(=O)(O)O [Iab, {3-[(4-benzoylpiperazin-1-yl)(oxo)acetyl]-4,7-dimethoxy-1H-pyrrolo[2,3-c]pyridin-1-yl}methyl dihydrogen phosphate, L-lysine salt (1:1)]
[5]
  in-life observations: no noteworthy in-life observations
[6]
  AUC of IVa from the prodrug relative to the clinical form of IVa: 37 times
  Cmax of IVa from the prodrug relative to the clinical form of IVa: 45 times

## O=C(C(=O)N1CCN(C(=O)c2ccccc2)CC1)c1cn(COP(=O)(O)O)c2c(-n3ccnn3)ncc(F)c12 [Ibb, [3-[(4-benzoylpiperazin-1-yl)(oxo)acetyl]-4-fluoro-7-(1H-1,2,3-triazol-1-yl)-1H-pyrrolo[2,3-c]pyridin-1-yl]methyl dihydrogen phosphate, L-lysine salt (1:1)]
Caco-2 cells
  hydrolysis to parent in Caco-2 cells: completely hydrolyzed
pKa
  pKa: 6.1

## COc1cnc(-n2cnc(C)n2)c2c1c(C(=O)C(=O)N1CCN(C(=O)c3ccccc3)CC1)cn2COP(=O)(O)O [Icb, [3-[(4-benzoylpiperazin-1-yl)(oxo)acetyl]-4-methoxy-7-(3-methyl-1H-1,2,4-triazol-1-yl)-1H-pyrrolo[2,3-c]pyridin-1-yl]methyl dihydrogen phosphate, 2-amino-2-(hydroxymethyl)propane-1,3-diol salt (1:1)]
[7]; 0 min
  Icb: 7.6 µM
[7]; 15 min
  Icb: 6.5 µM
[7]; 90 min
  Icb: 2.1 µM
